Assay results reported in patent US20130217722A1, “NOVEL COMPOUND USEFUL FOR THE TREATMENT OF DEGENERATIVE AND INFLAMMATORY DISEASES” (priority 2012, published 2013).
Values joined by “and” are separate entries in the source; they are usually repeats but may differ in a detail not shown here. Equal values may be shown once.

What was measured:
[1] = target: T1, Recombinant human JAK3 catalytic domain (Homo sapiens, UniProt P52333); experiment: JAK3 inhibition assay (polyGT substrate); type: biochemical
T1 construct: Recombinant human JAK3 catalytic domain (amino acids 781-1124; catalog number PV3855) was purchased from Invitrogen; purchased Invitrogen PV3855
Protocol: Recombinant human JAK3 catalytic domain (amino acids 781-1124; catalog number PV3855) was purchased from Invitrogen. 0.5 ng JAK3 protein was incubated with 2.5 μg polyGT substrate (Sigma catalog number P0275) in kinase reaction buffer (25 mM Tris pH 7.5, 0.5 mM EGTA, 10 mM MgCl2, 2.5 mM DTT, 0.5 mM Na3VO4, 5 mM b-glycerolphosphate, 0.01% Triton X-100, 1 μM non-radioactive ATP, 0.25 μCi ^33P-gamma-ATP (GE Healthcare, catalog number AH9968) final concentrations) with or without 5 μL containing test compound or vehicle (DMSO, 1% final concentration), in a total volume of 25 μL, in a polypropylene 96-well plate (Greiner, V-bottom). After 45 min at 30° C., reactions were stopped by adding 25 μL/well of 150 mM phosphoric acid. […] 40 μL/well of Microscint-20 was added, the top of the plates was sealed and readout was performed using the Topcount (Perkin Elmer). Kinase activity was calculated by subtracting counts per min (cpm) obtained in the presence of a positive control inhibitor (10 μM staurosporine) from cpm obtained in the presence of vehicle. The ability of a test compound to inhibit this activity was determined as:
Percentage inhibition=((cpm determined for sample with test compound present−cpm determined for sample with positive control inhibitor) divided by (cpm determined in the presence of vehicle−cpm determined for sample with positive control inhibitor))*100. […]

[2] = target: T2, JAK1 (Homo sapiens, UniProt P23458); experiment: JAK1 Ulight-JAK1 peptide assay; type: biochemical
T2 construct: Recombinant human JAK1 (catalytic domain, amino acids 866-1154; catalog number PV4774) was purchased from Invitrogen; purchased Invitrogen PV4774
Protocol: Recombinant human JAK1 (catalytic domain, amino acids 866-1154; catalog number PV4774) was purchased from Invitrogen. 1 ng of JAK1 was incubated with 20 nM Ulight-JAK1(tyr1023) peptide (Perkin Elmer catalog number TRF0121) in kinase reaction buffer (25 mM MOPS pH6.8, 0.01% Brij-35, 5 mM MgCl2, 2 mM DTT, 7 μM ATP) with or without 4 μL containing test compound or vehicle (DMSO, 1% final concentration), in a total volume of 20 μL, in a white 384 Opti plate (Perkin Elmer, catalog number 6007290). […] Readout is performed using the Envision with excitation at 320 nm and measuring emission at 615 nm (Perkin Elmer). Kinase activity was calculated by subtracting relative fluorescence units (RFU) obtained in the presence of a positive control inhibitor (10 μM staurosporine) from RFU obtained in the presence of vehicle. The ability of a test compound to inhibit this activity was determined as:
Percentage inhibition=((RFU determined for sample with test compound present−RFU determined for sample with positive control inhibitor) divided by (RFU determined in the presence of vehicle−RFU determined for sample with positive control inhibitor))*100.
Dose dilution series were prepared for the compounds enabling the testing of dose-response effects in the JAK1 assay and the calculation of the IC50 for the compound. […] The data are expressed as the average IC50 from the assays ±standard error of the mean.

[3] = target: T3, TYK2 (Homo sapiens, UniProt P29597); experiment: TYK2 Ki determination assay (kinase tracer binding); conditions: kinase tracer 236 binding; read-out: Ki against TYK2
T3 construct: purchased Carna Biosciences 09CBS-0983D
Protocol: TYK2 (Carna Biosciences, 09CBS-0983D) was used at a final concentration of 5 nM. The binding experiment was performed in 50 mM Hepes pH 7.5, 0.01% Brij-35, 10 mM MgCl2, 1 mM EGTA using 50 nM kinase tracer 236 (Invitrogen, PV5592) and 2 nM Eu-anti-GST (Invitrogen, PV5594) with varying compound concentrations. Detection of tracer was performed according to the manufacturers' procedure.

[4] = test system: CTLL2 cells; experiment: CTLL2 viability assay (IL2-dependent); type: cell-based; conditions: ATP content
Protocol: The protocol describes the methods to analyse the activity of compounds on the ability to sustain the IL2-dependent viability of CTLL2
Negative control is a DMSO dilution, positive control at 10 μM. Final DMSO concentration is 0.1%.

T2 sequence (P23458 866-1154): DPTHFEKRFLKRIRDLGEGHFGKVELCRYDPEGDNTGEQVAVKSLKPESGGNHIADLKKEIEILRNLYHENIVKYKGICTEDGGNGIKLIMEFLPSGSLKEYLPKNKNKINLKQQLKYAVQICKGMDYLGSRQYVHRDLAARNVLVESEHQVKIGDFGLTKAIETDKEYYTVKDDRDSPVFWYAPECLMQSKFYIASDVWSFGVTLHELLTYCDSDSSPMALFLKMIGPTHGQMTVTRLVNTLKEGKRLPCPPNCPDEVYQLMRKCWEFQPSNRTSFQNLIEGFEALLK
T1 sequence (P52333 781-1124): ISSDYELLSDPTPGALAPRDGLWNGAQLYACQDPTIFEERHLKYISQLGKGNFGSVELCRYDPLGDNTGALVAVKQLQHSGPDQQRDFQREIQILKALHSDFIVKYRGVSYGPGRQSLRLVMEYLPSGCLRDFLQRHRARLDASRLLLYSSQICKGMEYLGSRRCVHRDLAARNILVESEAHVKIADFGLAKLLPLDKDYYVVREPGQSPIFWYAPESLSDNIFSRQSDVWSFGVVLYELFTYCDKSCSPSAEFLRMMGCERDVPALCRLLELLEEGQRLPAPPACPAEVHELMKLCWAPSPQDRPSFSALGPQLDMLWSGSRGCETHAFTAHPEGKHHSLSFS
T3 sequence (P29597 whole entry): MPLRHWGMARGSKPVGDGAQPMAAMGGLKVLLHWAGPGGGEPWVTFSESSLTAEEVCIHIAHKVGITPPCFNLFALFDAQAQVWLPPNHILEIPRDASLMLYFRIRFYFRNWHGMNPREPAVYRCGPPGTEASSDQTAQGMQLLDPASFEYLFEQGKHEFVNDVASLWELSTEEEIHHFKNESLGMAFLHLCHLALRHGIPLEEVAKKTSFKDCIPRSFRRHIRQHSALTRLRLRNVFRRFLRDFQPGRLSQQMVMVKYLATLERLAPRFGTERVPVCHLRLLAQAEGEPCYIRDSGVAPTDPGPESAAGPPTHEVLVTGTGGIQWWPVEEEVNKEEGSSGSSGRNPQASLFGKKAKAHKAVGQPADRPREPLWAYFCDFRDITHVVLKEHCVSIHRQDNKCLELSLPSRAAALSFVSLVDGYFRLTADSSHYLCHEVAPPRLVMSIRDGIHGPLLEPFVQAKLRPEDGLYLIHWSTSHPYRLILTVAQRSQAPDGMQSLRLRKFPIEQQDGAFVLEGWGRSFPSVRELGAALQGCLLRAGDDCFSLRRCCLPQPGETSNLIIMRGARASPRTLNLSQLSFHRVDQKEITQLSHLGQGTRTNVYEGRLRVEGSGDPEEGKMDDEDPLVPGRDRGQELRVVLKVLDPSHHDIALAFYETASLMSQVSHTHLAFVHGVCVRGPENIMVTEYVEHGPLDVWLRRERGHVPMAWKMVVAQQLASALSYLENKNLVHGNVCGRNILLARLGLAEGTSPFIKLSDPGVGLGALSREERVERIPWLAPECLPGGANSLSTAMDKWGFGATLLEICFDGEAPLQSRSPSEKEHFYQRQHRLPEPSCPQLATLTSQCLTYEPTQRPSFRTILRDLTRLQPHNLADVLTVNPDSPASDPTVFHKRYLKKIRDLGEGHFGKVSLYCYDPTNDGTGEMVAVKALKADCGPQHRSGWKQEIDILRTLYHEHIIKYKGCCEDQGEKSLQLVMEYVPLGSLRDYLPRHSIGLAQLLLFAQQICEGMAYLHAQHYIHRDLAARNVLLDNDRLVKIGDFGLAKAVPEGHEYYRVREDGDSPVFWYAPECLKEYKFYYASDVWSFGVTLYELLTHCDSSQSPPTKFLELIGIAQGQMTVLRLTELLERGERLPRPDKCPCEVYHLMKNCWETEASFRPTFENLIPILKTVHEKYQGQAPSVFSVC

- JAK1 selectivity vs JAK3 [1]: 30 fold
- IC50 ([1]; polyGT substrate, 1 μM ATP, individual determinations, read-out: IC50 against JAK3): 160 nM and 65.2 nM and 142 nM and 66.9 nM and 30.9 nM and 32.8 nM and 38 nM and 66.6 nM
- selectivity for JAK1 vs the other JAK family members (JAK2, JAK3, and TYK2) [2]: at least 9 fold
- Ki [3]: 70.7 nM and 108 nM
SMILES: CCc1cc(C2=CCN(C(=O)CC#N)CC2)ccc1N(C)c1cc2c(cn1)ncn2C [Compound 1]
- IC50 ([2]; Ulight-JAK1(tyr1023) peptide, 7 μM ATP, individual determinations, read-out: IC50 against JAK1): 1.37 nM and 1.47 nM and 1.6 nM and 3.08 nM and 1.13 nM and 1.45 nM (2×) and 1.92 nM and 2.34 nM and 2.42 nM and 1.42 nM and 4.09 nM and 4.14 nM and 3.63 nM and 3.46 nM and 2.31 nM and 0.815 nM and 6.84 nM and 6.14 nM and 0.756 nM
- IC50 ([4]; 24 h, listed as compound of the invention): 2440 nM
- IC50 ([4]; Mus musculus, CTLL-2, 24 h): 1810 nM
